For nine compounds, Ki, IC50 and inhibition in vivo results are on record in patent US10131679B2, “Substituted dihydropyrrolopyrazole compound” (UBE INDUSTRIES, LTD., priority 2014, dated 2018).

For test [1], the target named is T1, PAK4 (Homo sapiens, UniProt O96013).
T1 construct: purchased Invitrogen Corp. PV4212
Put plainly: PAK4 enzyme inhibition test. The conditions noted are these: Ki=IC50/(1+S/Km); 33P bound to MBP, [γ-33P]ATP, 30° C. for 20 minutes; read-out: Ki value of PAK4 inhibitory activity. It is filed as biochemical. The method in brief: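 Radiometric assay: PAK4 with MBP substrate and 40 μM [γ-^33P]ATP solution in Tris pH 7.5 buffer with MgCl2, DTT, EGTA, reacted 20 min at 30 °C. TCA-precipitated, washed ^33P-MBP counted by scintillation. IC50 from inhibition of ^33P incorporation; Ki = IC50/(1+S/Km).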

The test system of test [2] is human large intestine cancer cell line (HCT-116). Put plainly: Human large intestine cancer (HCT-116) cell growth inhibition test. The test is classed as cell-based. To be noted: 72 h, HCT-116, culture for 3 days, sulforhodamine B absorbance. An outline of the steps:
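HCT-116 cells seeded at 1.0×10^3 cells/well in McCoy's 5a with 10% FBS, then exposed to compound (0.1% DMSO final) for 3 days. Growth measured by sulforhodamine B absorbance; IC50 derived from concentration-inhibition data.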

Test [3] concerns mouse imiquimod-induced psoriasis model. Put plainly: Ear thickening suppression test using mouse imiquimod-induced psoriasis model. It is filed as in vivo. To be noted: topical, 120 h, thickness measured on day 5, BALB/c mice, read-out: rate of inhibition of increase in right auricle thickness; for inhibition in vivo at 0.01 %: application of a 0.01% methanol solution for 4 days; for inhibition in vivo at 1 %: application of a 1% solution in methanol for 4 days. The method in brief:
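Female BALB/c mice received test compound topically or orally, then 5 mg imiquimod cream (5%) on the right auricle 60 minutes later, daily for 4 days. Ear thickness was measured on day 5. Inhibition (%) of thickening was calculated relative to the solvent group, taken as 100%.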

T1 sequence (O96013 whole entry): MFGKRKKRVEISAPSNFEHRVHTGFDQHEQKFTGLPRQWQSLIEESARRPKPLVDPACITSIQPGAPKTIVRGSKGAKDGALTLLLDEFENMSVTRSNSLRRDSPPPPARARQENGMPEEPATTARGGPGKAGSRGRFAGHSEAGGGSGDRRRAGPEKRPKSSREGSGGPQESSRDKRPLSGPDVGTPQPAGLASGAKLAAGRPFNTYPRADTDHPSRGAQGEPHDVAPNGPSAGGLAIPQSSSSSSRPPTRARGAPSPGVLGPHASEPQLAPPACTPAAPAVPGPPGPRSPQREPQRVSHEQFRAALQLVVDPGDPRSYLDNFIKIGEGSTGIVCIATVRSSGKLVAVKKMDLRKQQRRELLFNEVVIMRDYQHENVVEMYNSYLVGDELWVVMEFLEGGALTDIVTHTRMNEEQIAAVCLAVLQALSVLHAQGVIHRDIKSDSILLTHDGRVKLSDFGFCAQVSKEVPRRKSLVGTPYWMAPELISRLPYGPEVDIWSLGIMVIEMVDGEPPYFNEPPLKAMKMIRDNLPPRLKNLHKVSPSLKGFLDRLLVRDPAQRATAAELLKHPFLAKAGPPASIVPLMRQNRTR

Turning to `CC(C)(CO)C(NC(=O)N1Cc2c(NC(=O)C3([Si](C)(C)C)CCC3)n[nH]c2C1(C)C)c1ccccc1` (single isomer, unassigned; (-)) [IV-673, (−)-N-(3-Hydroxy-2,2-dimethyl-1-phenylpropyl)-6,6-dimethyl-3-[1-(trimethylsilyl)cyclobutanecarboxamido]-4,6-dihydropyrrolo[3,4-c]pyrazole-5(1H)-carboxamide], the inhibition constant Ki (usually a dissociation constant, usually derived from enzyme kinetics or from competition with a known ligand) in test [1] is not below 500 nM. In addition, the IC50 – broadly, the midpoint of a concentration-inhibition curve – in test [2] was not above 500 nM. For the same compound, in test [3], the inhibition in vivo at 0.01 % was not below 50%.

For `CC1(C)c2[nH]nc(NC(=O)C3([Si](C)(C)C)CCC3)c2CN1C(=O)N[C@H](CO)c1ccccc1` [IV-114, (S)—N-(2-Hydroxy-1-phenylethyl)-6,6-dimethyl-3-[1-(trimethylsilyl)cyclobutanecarboxamido]-4,6-dihydropyrrolo[3,4-c]pyrazole-5(1H)-carboxamide], in test [1], the Ki was not below 500 nM. Further, the concentration for half-maximal inhibition (IC50) in test [2] is not above 500 nM. For the same compound, in test [3], the inhibition in vivo at 1 % is not below 50%.

In the case of `COC[C@@H](NC(=O)N1Cc2c(NC(=O)C3([Si](C)(C)C)CCC3)n[nH]c2C1(C)C)c1ccccc1` [IV-123, (S)—N-(2-Methoxy-1-phenylethyl)-6,6-dimethyl-3-[1-(trimethylsilyl)cyclobutanecarboxamido]-4,6-dihydropyrrolo[3,4-c]pyrazole-5(1H)-carboxamide], in test [1], the inhibition constant Ki is not below 500 nM. Besides, the IC50 in test [2] is not above 500 nM. Besides, the inhibition in vivo at 1 % in test [3] is not below 50%.

As for `CC1(C)c2[nH]nc(NC(=O)C3([Si](C)(C)C)CCC3)c2CN1C(=O)N[C@H](CCO)c1ccccc1` [IV-227, (R)—N-(3-Hydroxy-1-phenylpropyl)-6,6-dimethyl-3-[1-(trimethylsilyl)cyclobutanecarboxamido]-4,6-dihydropyrrolo[3,4-c]pyrazole-5(1H)-carboxamide], the Ki in test [1] is not below 500 nM. Also, in test [2], the IC50 is not above 500 nM. Moreover, the inhibition in vivo at 1 % in test [3] is not below 50%.

Take `CC(C)(O)C[C@@H](NC(=O)N1Cc2c(NC(=O)C3([Si](C)(C)C)CCC3)n[nH]c2C1(C)C)c1ccccc1` [IV-299, (R)—N-(3-Hydroxy-3-methyl-1-phenylbutyl)-6,6-dimethyl-3-[1-(trimethylsilyl)cyclobutanecarboxamido]-4,6-dihydropyrrolo[3,4-c]pyrazole-5(1H)-carboxamide]: in test [1], the Ki is not below 500 nM. In test [2], this compound showed an IC50 not above 500 nM. Further, the inhibition in vivo at 0.01 % in test [3] was not below 50%.

In turn, `CC[Si](C)(C)C1(C(=O)Nc2n[nH]c3c2CN(C(=O)[C@H](OC)c2ccccc2)C3(C)C)CCC1` [IV-1178, (R)-1-(Ethyldimethylsilyl)-N-[5-(2-methoxy-2-phenylacetyl)-6,6-dimethyl-1,4,5,6-tetrahydropyrrolo[3,4-c]pyrazol-3-yl] cyclobutanecarboxamide] came in with a half-inhibitory concentration (IC50) in test [2] not above 500 nM. The inhibition in vivo at 0.01 % in test [3] was not below 50%.

In test [2], `CC1(C)c2[nH]nc(NC(=O)C3([Si](C)(C)C)CCC3)c2CN1C(=O)[C@H](OC(F)F)c1ccccc1` [IV-1180, (R)—N-{5-[2-(Difluoromethoxy)-2-phenylacetyl]-6,6-dimethyl-1,4,5,6-tetrahydropyrrolo[3,4-c]pyrazol-3-yl}-1-(trimethylsilyl)cyclobutanecarboxamide] returned an IC50 not above 500 nM. Moreover, the inhibition in vivo at 0.01 % in test [3] is not below 50%.

`CCO[C@@H](C(=O)N1Cc2c(NC(=O)C3([Si](C)(C)C)CCC3)n[nH]c2C1(C)C)c1ccccc1` [IV-1188, (R)—N-[5-(2-Ethoxy-2-phenylacetyl)-6,6-dimethyl-1,4,5,6-tetrahydropyrrolo[3,4-c]pyrazol-3-yl]-1-(trimethylsilyl)cyclobutanecarboxamide] returned an IC50 in test [2] not above 500 nM. In addition, the inhibition in vivo at 0.01 % in test [3] was not below 50%.

With `CCCO[C@@H](C(=O)N1Cc2c(NC(=O)C3([Si](C)(C)C)CCC3)n[nH]c2C1(C)C)c1ccccc1` [IV-1196, (R)—N-[6,6-Dimethyl-5-(2-phenyl-2-propoxyacetyl)-1,4,5,6-tetrahydropyrrolo[3,4-c]pyrazol-3-yl]-1-(trimethylsilyl)cyclobutanecarboxamide], the IC50 in test [2] was not above 500 nM. In test [3], the inhibition in vivo at 0.01 % was not below 50%.
